Source: the supplement of paper PMC10307832

Assays:
Experiment in all cases: relative viability (nuclei count vs DMSO), 5 days (fraction); higher = more cells survive
Mirin + Alpelisib = compound: N=C1NC(=O)/C(=C/c2ccc(O)cc2)S1 [Mirin] + Cc1nc(NC(=O)N2CCC[C@H]2C(N)=O)sc1-c1ccnc(C(C)(C)C(F)(F)F)c1 [Alpelisib] (partner 2 µM)
Summary of the method: (§1)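 Relative viability is defined as nuclei in treated wells over nuclei in vehicle wells. Duplicate plates were run and medians reported. Lung cancer cell lines in 1536-well plates were dosed by pin tool one day after seeding, with one drug or with a fixed anchor-drug dose plus five library-drug doses (not always all listed) in √10 steps, and nuclei were counted after 5 days.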

Mirin + OSI-027 = compound: N=C1NC(=O)/C(=C/c2ccc(O)cc2)S1 [Mirin] + COc1cccc2cc(-c3nc([C@H]4CC[C@H](C(=O)O)CC4)n4ncnc(N)c34)[nH]c12 [OSI-027] (partner 0.5 µM)
Summary of the method: as §1

Mirin + Crizotinib = compound: N=C1NC(=O)/C(=C/c2ccc(O)cc2)S1 [Mirin] + C[C@@H](Oc1cc(-c2cnn(C3CCNCC3)c2)cnc1N)c1c(Cl)ccc(F)c1Cl [Crizotinib] (partner 1 µM)
Summary of the method: as §1

Mirin + Foretinib = compound: N=C1NC(=O)/C(=C/c2ccc(O)cc2)S1 [Mirin] + COc1cc2c(Oc3ccc(NC(=O)C4(C(=O)Nc5ccc(F)cc5)CC4)cc3F)ccnc2cc1OCCCN1CCOCC1 [Foretinib] (partner 0.25 µM)
Summary of the method: as §1

Cell Line	relative viability (Mirin + Alpelisib; first compound 0.25 µM)	relative viability (Mirin + Alpelisib; first compound 0.7906 µM)	relative viability (Mirin + Alpelisib; first compound 2.5 µM)	relative viability (Mirin + Alpelisib; first compound 7.906 µM)	relative viability (Mirin + Alpelisib; first compound 25 µM)	relative viability (Mirin + OSI-027; first compound 0.25 µM)	relative viability (Mirin + OSI-027; first compound 0.7906 µM)	relative viability (Mirin + OSI-027; first compound 2.5 µM)	relative viability (Mirin + OSI-027; first compound 7.906 µM)	relative viability (Mirin + OSI-027; first compound 25 µM)	relative viability (Mirin + Crizotinib; first compound 0.25 µM)	relative viability (Mirin + Crizotinib; first compound 0.7906 µM)	relative viability (Mirin + Crizotinib; first compound 2.5 µM)	relative viability (Mirin + Crizotinib; first compound 7.906 µM)	relative viability (Mirin + Crizotinib; first compound 25 µM)	relative viability (Mirin + Foretinib; first compound 0.25 µM)	relative viability (Mirin + Foretinib; first compound 0.7906 µM)	relative viability (Mirin + Foretinib; first compound 2.5 µM)	relative viability (Mirin + Foretinib; first compound 7.906 µM)	relative viability (Mirin + Foretinib; first compound 25 µM)
NCI-H322M	0.783	0.844	0.734	0.829	0.844	0.543	0.4	0.643	0.475	0.444	0.797	1.04	0.874	0.905	0.756	1.06	1.02	1.07	0.934	1.05
NCI-H358	0.822	0.876	0.943	0.723	0.461	0.783	0.843	0.793	0.542	0.368	0.553	0.678	0.536	0.329	0.243	0.734	0.742	0.739	0.565	0.406
NCI-H441	0.537	1.11	0.631	0.536	0.507	0.673	0.6	0.598	0.473	0.602	0.856	0.794	0.701	0.365	0.706	1.02	1.16	0.995	1.09	1.05
NCI-H460	0.511	0.424	0.559	0.515	0.236	0.612	0.672	0.748	0.55	0.389	0.887	1.15	0.935	0.875	0.915	1.08	1.04	0.999	1.04	1.08
NCI-H520	1.01	0.834	0.883	0.665	0.522	0.241	0.289	0.257	0.222	0.177	0.993	0.715	0.715	0.631	0.377	0.742	0.784	0.874	0.874	0.439
NCI-H596	0.438	0.45	0.481	0.513	0.361	0.826	0.747	0.842	0.587	0.746	0.953	0.891	1.08	1.07	1.09	0.826	0.953	1.03	0.916	1.08
NCI-H647	1.24	1.36	1.15	1.22	0.657	0.759	0.688	0.572	0.645	0.503	1.07	1.3	1.24	1.08	0.596	1.4	1.27	1.14	1.32	0.946
NCI-H650	1.04		1.09		1.1	0.478	0.628	0.523		0.58	0.726		0.656		0.673	0.834	1.07	1.06		1.13
